Measured values: patent publication US11390604B2 (Hoffmann-La Roche Inc., priority 2019, dated 2022)
Structures can show the parent of a compound that is named as a salt.

Tested on: Acinetobacter baumannii ATCC 17961
Assay: Antimicrobial susceptibility testing: 90% growth inhibitory concentration (IC90) determination
Format: cell-based
Conditions: ATCC17961, Acinetobacter baumannii ATCC 17961, Iso-Sensitest broth, read-out: ATCC 17961 IC90
Procedure, shortened: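 Growth was followed kinetically by OD600 at 20-min intervals for 16 h at 35±2 °C, with ~5×10^5 CFU/ml in Iso-Sensitest broth. Compounds were tested as twofold dilutions (e.g. 50–0.097 μM final). The concentration giving 90% inhibition of log-phase growth was reported.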

| Molecule | IC90 |
| --- | --- |
| Cn1c(-c2cn(C3CC3)nc2C(F)(F)F)cnc1C(=O)Nc1ccc(C(=O)N2CCN(C(=O)N3CC[C@@H](N)C3)CC2)c(Cl)c1 [Example 349, (R)-N-(4-(4-(3-aminopyrrolidine-1-carbonyl)piperazine-1-carbonyl)-3-chlorophenyl)-5-(1-cyclopropyl-3-(trifluoromethyl)-1H-pyrazol-4-yl)-1-methyl-1H-imidazole-2-carboxamide formate] | 449 nM |
| C#CCn1cc(-c2cnc(C(=O)Nc3ccc(C(=O)NCCCN)c(Cl)c3)n2C)c(C(F)(F)F)n1 [Example 44, N-(4-((3-aminopropyl)carbamoyl)-3-chlorophenyl)-1-methyl-5-(1-(prop-2-yn-1-yl)-3-(trifluoromethyl)-1H-pyrazol-4-yl)-1H-imidazole-2-carboxamide 2,2,2-trifluoroacetate] | 556 nM |
| Cn1c(-c2cn(CC(F)F)nc2C(F)(F)F)cnc1C(=O)Nc1ccc(C(=O)N2CCN(C(=O)C3CCNCC3)CC2)c(Cl)c1 [Example 12, N-(3-chloro-4-(4-(piperidine-4-carbonyl)piperazine-1-carbonyl)phenyl)-5-(1-(2,2-difluoroethyl)-3-(trifluoromethyl)-1H-pyrazol-4-yl)-1-methyl-1H-imidazole-2-carboxamide hydrochloride] | 700 nM |
| Cn1c(-c2cn(CC(F)F)nc2C(F)(F)F)cnc1C(=O)Nc1ccc(C(=O)N2CCN(C(=O)NC3CNC3)CC2)c(Cl)c1 [Example 146, N-(azetidin-3-yl)-4-[2-chloro-4-[[5-[1-(2,2-difluoroethyl)-3-(trifluoromethyl)pyrazol-4-yl]-1-methylimidazole-2-carbonyl]amino]benzoyl]piperazine-1-carboxamide;formic acid] | 434 nM |
| Cn1c(-c2cn(C3CC3)nc2C(F)(F)F)cnc1C(=O)Nc1ccc(C(=O)N2CC[C@@H](CN)C2)c(Cl)c1 [Example 217, (S)-N-(4-(3-(aminomethyl)pyrrolidine-1-carbonyl)-3-chlorophenyl)-5-(1-cyclopropyl-3-(trifluoromethyl)-1H-pyrazol-4-yl)-1-methyl-1H-imidazole-2-carboxamide hydrochloride] | 244 nM |
| C[C@H](N)C(=O)N1CCN(C(=O)c2ccc(NC(=O)c3ncc(-c4cn(CC5CCC5)nc4C(F)(F)F)n3C)cc2Cl)CC1 [Example 278, N-(4-(4-(L-alanyl)piperazine-1-carbonyl)-3-chlorophenyl)-5-(1-(cyclobutylmethyl)-3-(trifluoromethyl)-1H-pyrazol-4-yl)-1-methyl-1H-imidazole-2-carboxamide hydrochloride] | 344 nM |
| CC(C(N)=O)n1cc(-c2cnc(C(=O)Nc3ccc(C(=O)N4CCN(C(=O)C5CCNCC5)CC4)c(Cl)c3)n2C)c(C(F)(F)F)n1 (centres unmarked) [Example 22, 5-(1-(1-amino-1-oxopropan-2-yl)-3-(trifluoromethyl)-1H-pyrazol-4-yl)-N-(3-chloro-4-(4-(piperidine-4-carbonyl)piperazine-1-carbonyl)phenyl)-1-methyl-1H-imidazole-2-carboxamide formate] | 1290 nM |
| C[C@@H](N)C(=O)N[C@H]1C[C@@H](NC(=O)c2ccc(NC(=O)c3ncc(-c4cn(CC#N)nc4C(F)(F)F)n3C)cc2Cl)C1 [Example 95, N-[4-[[3-[[(2R)-2-aminopropanoyl]amino]cyclobutyl]carbamoyl]-3-chlorophenyl]-5-[1-(cyanomethyl)-3-(trifluoromethyl)pyrazol-4-yl]-1-methylimidazole-2-carboxamide;2,2,2-trifluoroacetic acid] | 422 nM |
| Cn1c(-c2cn(C3CC3)nc2C(F)(F)F)cnc1C(=O)Nc1ccc(C(=O)N2CCN(C(=O)[C@H]3CCN3)CC2)c(Cl)c1 [Example 348, (R)-N-(4-(4-(azetidine-2-carbonyl)piperazine-1-carbonyl)-3-chlorophenyl)-5-(1-cyclopropyl-3-(trifluoromethyl)-1H-pyrazol-4-yl)-1-methyl-1H-imidazole-2-carboxamide hydrochloride] | 447 nM |
| Cn1c(-c2cn(C3CC3(F)F)nc2C(F)(F)F)cnc1C(=O)Nc1ccc(C(=O)N[C@H]2[C@@H]3CN(C(=O)N[C@@H]4CNC[C@H]4O)C[C@@H]32)c(Cl)c1 (mixture of isomers) [Example 382, exo-6-[[2-chloro-4-[[5-[1-(2,2-difluorocyclopropyl)-3-(trifluoromethyl)pyrazol-4-yl]-1-methylimidazole-2-carbonyl]amino]benzoyl]amino]-N-[trans-4-hydroxypyrrolidin-azabicyclo[3.1.0]hexane-3-carboxamide, formate salt] | 127 nM |
| CCc1cc(NC(=O)c2ncc(-c3cn(CC(F)F)nc3C(F)(F)F)n2C)ccc1C(=O)N1CCN(C(=O)C2CNC2)CC1 [Example 153, N-[4-[4-(azetidine-3-carbonyl)piperazine-1-carbonyl]-3-ethylphenyl]-5-[1-(2,2-difluoroethyl)-3-(trifluoromethyl)pyrazol-4-yl]-1-methylimidazole-2-carboxamide;formic acid] | 1000 nM |
| CCc1cc(NC(=O)c2ncc(-c3cn(CC#N)nc3C(F)(F)F)n2C)ccc1C(=O)N1CCN(C(=O)N2CC3CC2CN3)CC1 (centres unmarked) [Example 141, 5-[1-(cyanomethyl)-3-(trifluoromethyl)pyrazol-4-yl]-N-[4-[4-(2,5-diazabicyclo[2.2.1]heptane-2-carbonyl)piperazine-1-carbonyl]-3-ethylphenyl]-1-methylimidazole-2-carboxamide;formic acid] | 887 nM |
| Cn1c(-c2cn(C3CC3)nc2C(F)(F)F)cnc1C(=O)Nc1ccc(C(=O)N2CC[C@H](CN)C2)c(Cl)c1 [Example 195, (R)-N-(4-(3-(aminomethyl)pyrrolidine-1-carbonyl)-3-chlorophenyl)-5-(1-cyclopropyl-3-(trifluoromethyl)-1H-pyrazol-4-yl)-1-methyl-1H-imidazole-2-carboxamide hydrochloride] | 202 nM |
| Cn1c(-c2cn(CCOC(F)F)nc2C(F)(F)F)cnc1C(=O)Nc1ccc(C(=O)N2CCN(C(=O)C3CCNCC3)CC2)c(Cl)c1 [Example 109, N-[3-chloro-4-[4-(piperidine-4-carbonyl)piperazine-1-carbonyl]phenyl]-5-[1-[2-(difluoromethoxy)ethyl]-3-(trifluoromethyl)pyrazol-4-yl]-1-methylimidazole-2-carboxamide;hydrochloride] | 473 nM |

Same assay, conditions: Acinetobacter baumannii ATCC 17961, Iso-Sensitest broth, read-out: ATCC 17961 IC90

| Molecule | IC90 |
| --- | --- |
| formic acid;rac-(1S,5R)-8-[2- chloro-4-[[5-[1-(2,2- difluorocyclopropyl)-3- (trifluoromethyl)pyrazol-4-yl]- 1-methyl-imidazole-2- carbonyl]amino]benzoyl]-N- [rac-(3S,4S)-4- hydroxypyrrolidin-3-yl]-3,8- diazabicyclo[3.2.1]octane-3- carboxamide [Example 377] | 497 nM |
| N-[4-[(4-aminocyclohexyl)carbamoyl]-3-chlorophenyl]-1-methyl-5-[3-(trifluoromethyl)-1H-pyrazol-4-yl]imidazole-2-carboxamide;2,2,2-trifluoroacetic acid [Example 123] | 3840 nM |
| N-[4-[4-[(3S)-3-carbonyl]piperazine-1-carbonyl]-3-chlorophenyl]-1-methyl-5-[1-prop-2-ynyl-3-(trifluoromethyl)pyrazol-4-yl]imidazole-2-carboxamide [Example 80] | 212 nM |
